Results as given in patent publication US20070275948A1, “7-[4-(4-Chlorobenzyloxy)Benzenesulfonyl]-8-Methoxy-3-Methyl-2,3,4,5-Tetrahydro-1h-3-Benzazepinium Maleate Or Tosylate As antipyschotics” (priority 2003, published 2007).

Key:
[1] = Hygroscopicity / solid-state stability to humidity; details: for stability with respect to hygroscopicity and loss of water / changes when exposed to very high humidity: anhydrates; for stability over the free base and over the hydrochloride salt, particularly with respect to hygroscopicity: compared with free base and hydrochloride salt
dopamine D2 receptor = dopamine D2 receptor (Homo sapiens, UniProt P14416); experiment: Affinity for dopamine D2 receptor; type: binding
[2] = molecular target: T1, serotonin 5-HT2C receptor (Homo sapiens, UniProt P28335); experiment: Antagonist affinity for serotonin 5-HT2C receptor; type: binding
T1 sequence (P28335 33-458): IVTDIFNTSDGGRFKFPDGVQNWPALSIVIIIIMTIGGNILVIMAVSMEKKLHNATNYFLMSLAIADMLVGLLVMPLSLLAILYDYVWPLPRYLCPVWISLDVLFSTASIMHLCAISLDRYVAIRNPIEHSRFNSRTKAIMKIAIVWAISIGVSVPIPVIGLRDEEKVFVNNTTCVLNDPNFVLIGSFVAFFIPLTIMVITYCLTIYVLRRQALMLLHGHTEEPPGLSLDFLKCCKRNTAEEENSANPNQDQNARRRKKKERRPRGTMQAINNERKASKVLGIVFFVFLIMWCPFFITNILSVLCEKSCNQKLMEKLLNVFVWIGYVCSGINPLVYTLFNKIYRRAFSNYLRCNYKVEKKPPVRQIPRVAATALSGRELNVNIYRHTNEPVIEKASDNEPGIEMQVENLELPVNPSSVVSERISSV

dopamine D3 receptor = dopamine D3 receptor (Homo sapiens, UniProt P35462); experiment: Affinity for dopamine D3 receptor; type: binding; details: for affinity for dopamine D3 relative to D2 receptors: D3 versus D2
Chain of dopamine D3 receptor (P35462 whole entry, species assumed): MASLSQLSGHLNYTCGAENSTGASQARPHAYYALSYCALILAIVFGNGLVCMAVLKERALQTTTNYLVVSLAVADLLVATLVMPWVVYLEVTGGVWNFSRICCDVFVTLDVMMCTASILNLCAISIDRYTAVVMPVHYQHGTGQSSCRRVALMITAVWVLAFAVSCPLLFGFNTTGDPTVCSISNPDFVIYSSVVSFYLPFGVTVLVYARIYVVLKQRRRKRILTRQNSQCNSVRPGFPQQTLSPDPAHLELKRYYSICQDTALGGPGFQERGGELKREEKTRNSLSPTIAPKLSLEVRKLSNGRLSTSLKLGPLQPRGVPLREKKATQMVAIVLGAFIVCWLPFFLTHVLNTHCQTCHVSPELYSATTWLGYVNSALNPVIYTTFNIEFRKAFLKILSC

Chain of dopamine D2 receptor (P14416 whole entry): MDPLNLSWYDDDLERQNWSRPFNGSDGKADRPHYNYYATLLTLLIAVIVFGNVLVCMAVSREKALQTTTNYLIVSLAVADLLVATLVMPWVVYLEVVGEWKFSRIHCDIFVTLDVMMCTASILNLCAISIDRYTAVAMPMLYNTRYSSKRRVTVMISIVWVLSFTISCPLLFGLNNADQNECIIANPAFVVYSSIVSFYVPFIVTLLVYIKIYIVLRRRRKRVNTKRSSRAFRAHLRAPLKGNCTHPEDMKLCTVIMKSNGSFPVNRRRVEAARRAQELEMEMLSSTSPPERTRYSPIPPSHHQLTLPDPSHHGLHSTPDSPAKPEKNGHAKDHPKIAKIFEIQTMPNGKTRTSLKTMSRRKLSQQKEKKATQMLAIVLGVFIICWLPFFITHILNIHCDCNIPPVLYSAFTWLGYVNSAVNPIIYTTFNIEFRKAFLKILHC

Row | Compound | hygroscopicity ([1]; multiple forms, all of those tested) | stability with respect to hygroscopicity and loss of water [1] | changes when exposed to very high humidity [1] | stability over the free base and over the hydrochloride salt, particularly with respect to hygroscopicity [1] | affinity for dopamine D2 receptors (dopamine D2 receptor) | antagonist affinity for the serotonin 5-HT2C receptor [2] | affinity for dopamine D3 receptors (dopamine D3 receptor) | affinity for dopamine D3 relative to D2 receptors (dopamine D3 receptor)
1 | COc1cc2c(cc1S(=O)(=O)c1ccc(OCc3ccc(Cl)cc3)cc1)CCN(C)CC2 [free base, 7-[4-(4-chlorobenzyloxy)benzenesulfonyl]-8-methoxy-3-methyl-2,3,4,5-tetrahydro-1H-3-benzazepine] | hygroscopic |  |  |  |  |  |  | 
2 | COc1cc2c(cc1S(=O)(=O)c1ccc(OCc3ccc(Cl)cc3)cc1)CCN(C)CC2.O=C(O)/C=C\C(=O)O [maleate, 7-[4-(4-chlorobenzyloxy)benzenesulfonyl]-8-methoxy-3-methyl-2,3,4,5-tetrahydro-1H-3-benzazepinium maleate] |  | particular stability | reversible changes | improved stability | exhibit affinity | antagonist affinity | exhibit affinity | greater affinity for dopamine D3 than for D2 receptors
3 | COc1cc2c(cc1S(=O)(=O)c1ccc(OCc3ccc(Cl)cc3)cc1)CCN(C)CC2.Cc1ccc(S(=O)(=O)O)cc1 [tosylate, 7-[4-(4-Chlorobenzyloxy)benzenesulfonyl]-8-methoxy-3-methyl-2,3,4,5-tetrahydro-1H-3-benzazepinium p-toluenesulfonate] |  | particular stability | reversible changes | improved stability | exhibit affinity | antagonist affinity | exhibit affinity | greater affinity for dopamine D3 than for D2 receptors
